Patent publication USRE48711E1, “Apoptosis signal-regulating kinase inhibitors” (Gilead Sciences, Inc., priority 2009, dated 2021)

What follows are molecules tested against ASK1 (Apoptosis Signal-Regulating Kinase 1) (Homo sapiens (Human), UniProt Q99683) (assay: ASK1 (Apoptosis Signal-Regulating Kinase 1) TR-FRET Kinase Assay (Biochemical IC50)). Conditions: TR-FRET, biotin-MBP substrate, 20 min pre-incubation, ATP added as 300 μM solution.
Sequence of ASK1 (Apoptosis Signal-Regulating Kinase 1) (Q99683 649-946): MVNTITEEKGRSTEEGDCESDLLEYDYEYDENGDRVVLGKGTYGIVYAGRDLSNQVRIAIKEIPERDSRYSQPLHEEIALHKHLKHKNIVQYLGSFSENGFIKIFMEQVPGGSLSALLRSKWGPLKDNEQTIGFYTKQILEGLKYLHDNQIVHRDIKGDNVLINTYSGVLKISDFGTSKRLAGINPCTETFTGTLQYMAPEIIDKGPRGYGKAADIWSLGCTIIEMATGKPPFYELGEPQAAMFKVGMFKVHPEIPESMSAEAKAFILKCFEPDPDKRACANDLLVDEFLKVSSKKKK
With `Cn1c(-c2ccnc(C(=O)Nc3cccc(-c4nncn4C4CC4)c3)c2)nnc1C1CC1` [Example 255, 4-(5-cyclopropyl-4-methyl-4H-1,2,4-triazol-3-yl)-N-(3-(4-cyclopropyl-4H-1,2,4-triazol-3-yl)phenyl)picolinamide] the IC50 was 0.685 µM. `CCc1ncc(-c2ccnc(C(=O)Nc3cccc(-c4nncn4C4CC4)c3)c2)cn1` [Example 145, N-(3-(4-cyclopropyl-4H-1,2,4-triazol-3-yl)phenyl)-4-(2-ethylpyrimidin-5-yl)picolinamide] showed an IC50 of 0.007 µM. Molecule `O=C(Nc1cccc(-c2nncn2C2CC2)c1)c1cc(-c2cnc3cccnc3c2)ccn1` [Example 190, N-(3-(4-cyclopropyl-4H-1,2,4-triazol-3-yl)phenyl)-4-(1,5-naphthyridin-3-yl)picolinamide] has an IC50 of 0.013 µM. `CN1CCc2c(ncn2-c2ccnc(C(=O)Nc3cccc(-c4nncn4C4CC4)n3)c2)C1C(F)(F)F` (stereo not drawn) [Example 256, N-(6-(4-cyclopropyl-4H-1,2,4-triazol-3-yl)pyridin-2-yl)-4-(5-methyl-4-(trifluoromethyl)-4,5,6,7-tetrahydro-1H-imidazo[4,5-c]pyridin-1-yl)picolinamide] showed an IC50 of 0.004 µM. Molecule `O=C(Nc1cccc(-c2nncn2C2CC2)c1)c1cc(-c2ccc(C3CCCC3)nc2)ccn1` [Example 109, 6-cyclopentyl-N-(3-(4-cyclopropyl-4H-1,2,4-triazol-3-yl)phenyl)-3,4′-bipyridine-2′-carboxamide] has an IC50 of 0.021 µM. `O=C(Nc1cccc(-c2nncn2C2CC2)c1F)c1cc(-c2cccnc2)ccn1` [Example 157, N-(3-(4-cyclopropyl-4H-1,2,4-triazol-3-yl)-2-fluorophenyl)-3,4′-bipyridine-2′-carboxamide] showed an IC50 of 0.038 µM. In the case of `CN1CCc2c(ncn2-c2ccnc(C(=O)Nc3cccc(-c4nncn4C4CC4)c3)c2)C1C(F)(F)F` (stereo not drawn) [Example 257, N-(3-(4-cyclopropyl-4H-1,2,4-triazol-3-yl)phenyl)-4-(5-methyl-4-(trifluoromethyl)-4,5,6,7-tetrahydro-1H-imidazo[4,5-c]pyridin-1-yl)picolinamide], the IC50 is reported as 0.006 µM. Molecule `Cc1nc(C2CC2)cn1-c1ccnc(C(=O)Nc2cccc(-c3nncn3C3CC3)c2)c1` [Example 182, 4-(4-cyclopropyl-2-methyl-1H-imidazol-1-yl)-N-(3-(4-cyclopropyl-4H-1,2,4-triazol-3-yl)phenyl)picolinamide] has an IC50 of 0.015 µM. For `CCC(CC)n1cnnc1-c1cccc(NC(=O)c2cc(-c3ccc(C4CC4)nc3)ccn2)c1` [Example 231, 6-cyclopropyl-N-(3-(4-(pentan-3-yl)-4H-1,2,4-triazol-3-yl)phenyl)-3,4′-bipyridine-2′-carboxamide], the IC50 was 1.42 µM. For `Cn1cnnc1-c1cccc(NC(=O)c2cc(-c3cnc4ccccn34)ccn2)c1` [Example 13, 4-(imidazo[1,2-a]pyridin-3-yl)-N-(3-(4-methyl-4H-1,2,4-triazol-3-yl)phenyl)picolinamide], the IC50 was 0.044 µM. Work on `O=C(Nc1cccc(-c2nncn2C2CC2)c1)c1cc(-c2cnc3[nH]ccc3c2)ccn1` [Example 92, N-(3-(4-cyclopropyl-4H-1,2,4-triazol-3-yl)phenyl)-4-(1H-pyrrolo[2,3-b]pyridin-5-yl)picolinamide] yielded an IC50 of 0.013 µM. In the case of `COCCNc1ccc(-c2ccnc(C(=O)Nc3cccc(-c4nncn4C4CC4)c3)c2)cn1` [Example 136, N-(3-(4-cyclopropyl-4H-1,2,4-triazol-3-yl)phenyl)-6-(2-methoxyethylamino)-3,4′-bipyridine-2′-carboxamide], the IC50 is reported as 0.007 µM. With `C[C@@H](c1ccccc1)n1cnnc1-c1cccc(NC(=O)c2cccc(-n3cnc(C4CC4)c3)c2)n1` [Example 214, (S)-3-(4-cyclopropyl-1H-imidazol-1-yl)-N-(6-(4-(1-phenylethyl)-4H-1,2,4-triazol-3-yl)pyridin-2-yl)benzamide] the IC50 was 0.159 µM. `CC(C)n1cnnc1-c1cccc(NC(=O)c2cc(-n3cnc(C4CC4)c3)ccn2)c1` [Example 184, 4-(4-cyclopropyl-1H-imidazol-1-yl)-N-(3-(4-isopropyl-4H-1,2,4-triazol-3-yl)phenyl)picolinamide] gave an IC50 of 0.02 µM. `O=C(Nc1ccc(F)c(-c2nncn2C2CC2)c1)c1cc(-c2ccc(C3CC3)nc2)ccn1` [Example 147, 6-cyclopropyl-N-(3-(4-cyclopropyl-4H-1,2,4-triazol-3-yl)-4-fluorophenyl)-3,4′-bipyridine-2′-carboxamide] was tested, and the IC50 was 0.4 µM. In the case of `CC(C)n1cnnc1-c1cccc(NC(=O)c2cc(-c3cccnc3)ccn2)c1` [Example 180, N-(3-(4-isopropyl-4H-1,2,4-triazol-3-yl)phenyl)-3,4′-bipyridine-2′-carboxamide], the IC50 is reported as 0.027 µM. `CC(C)Oc1ccc(-c2ccnc(C(=O)Nc3cccc(-c4nncn4C4CC4)c3)c2)cn1` [Example 94, N-(3-(4-cyclopropyl-4H-1,2,4-triazol-3-yl)phenyl)-6-isopropoxy-3,4′-bipyridine-2′-carboxamide] was tested, and the IC50 was 0.061 µM. Work on `Nc1ncccc1-c1ccnc(C(=O)Nc2cccc(-c3nncn3C3CC3)c2)c1` [Example 66, 2-amino-N-(3-(4-cyclopropyl-4H-1,2,4-triazol-3-yl)phenyl)-3,4′-bipyridine-2′-carboxamide] yielded an IC50 of 0.086 µM. In the case of `O=C(Nc1cccc(-c2nncn2C2CC2)c1)c1cc(-c2cnc(C3CC3)c(F)c2)ccn1` [Example 134, 6-cyclopropyl-N-(3-(4-cyclopropyl-4H-1,2,4-triazol-3-yl)phenyl)-5-fluoro-3,4′-bipyridine-2′-carboxamide], the IC50 is reported as 0.034 µM. For `CCc1cn(-c2ccnc(C(=O)Nc3cccc(-c4nncn4C4CC4)c3)c2)cn1` [Example 158, N-(3-(4-cyclopropyl-4H-1,2,4-triazol-3-yl)phenyl)-4-(4-ethyl-1H-imidazol-1-yl)picolinamide], the IC50 was 0.005 µM. For `CS(=O)(=O)c1cccc(-c2ccnc(C(=O)Nc3cccc(-c4nncn4C4CC4)c3)c2)c1` [Example 77, N-(3-(4-cyclopropyl-4H-1,2,4-triazol-3-yl)phenyl)-4-(3-(methylsulfonyl)phenyl)picolinamide], the IC50 was 0.079 µM. `O=C(Nc1ccnc(-c2nncn2C2CC2)c1)c1cc(-c2ccc(C3CC3)nc2)ccn1` [Example 152, 6-cyclopropyl-N-(2-(4-cyclopropyl-4H-1,2,4-triazol-3-yl)pyridin-4-yl)-3,4′-bipyridine-2′-carboxamide] showed an IC50 of 0.286 µM. In the case of `O=C(Nc1cccc(-c2nncn2C2CC2)n1)c1cc(-n2cnc(C(F)(F)C(F)(F)F)c2)ccn1` [Example 199, N-(6-(4-cyclopropyl-4H-1,2,4-triazol-3-yl)pyridin-2-yl)-4-(4-(perfluoroethyl)-1H-imidazol-1-yl)picolinamide], the IC50 is reported as 0.009 µM. `O=C(Nc1cccc(-c2nncn2C2CC2)c1)c1cc(-c2cccnc2)c2ccccc2n1` [Example 80, N-(3-(4-cyclopropyl-4H-1,2,4-triazol-3-yl)phenyl)-4-(pyridin-3-yl)quinoline-2-carboxamide] showed an IC50 of 0.036 µM. `O=C(Nc1cccc(-c2nncn2C2CC2)n1)c1cccc(-n2cnc(C3CC3)c2)c1` [Example 192, 3-(4-cyclopropyl-1H-imidazol-1-yl)-N-(6-(4-cyclopropyl-4H-1,2,4-triazol-3-yl)pyridin-2-yl)benzamide] gave an IC50 of 0.007 µM. `C[C@H]1C[C@@H]1n1cnnc1-c1cccc(NC(=O)c2cc(-c3cccnc3)ccn2)c1` [Example 55, N-(3-(4-((1S,2S)-2-methylcyclopropyl)-4H-1,2,4-triazol-3-yl)phenyl)-3,4′-bipyridine-2′-carboxamide] showed an IC50 of 0.024 µM. For `CC(C)S(=O)(=O)c1ccc(-c2ccnc(C(=O)Nc3cccc(-c4nncn4C4CC4)c3)c2)cc1` [Example 118, N-(3-(4-cyclopropyl-4H-1,2,4-triazol-3-yl)phenyl)-4-(4-(isopropylsulfonyl)phenyl)picolinamide], the IC50 was 0.009 µM. With `N#Cc1cncc(-c2ccnc(C(=O)Nc3cccc(-c4nncn4C4CC4)c3)c2)c1` [Example 65, 5-cyano-N-(3-(4-cyclopropyl-4H-1,2,4-triazol-3-yl)phenyl)-3,4′-bipyridine-2′-carboxamide] the IC50 was 0.03 µM. With `O=C(Nc1cccc(-c2nncn2C2CC2)c1)c1cc(-c2cnc3scnn23)ccn1` [Example 121, N-(3-(4-cyclopropyl-4H-1,2,4-triazol-3-yl)phenyl)-4-(imidazo[2,1-b][1,3,4]thiadiazol-5-yl)picolinamide] the IC50 was 0.047 µM. `O=C(Nc1cccc(-c2nncn2C2CCC2)c1)c1cc(-c2ccc(C3CC3)nc2)ccn1` [Example 221, N-(3-(4-cyclobutyl-4H-1,2,4-triazol-3-yl)phenyl)-6-cyclopropyl-3,4′-bipyridine-2′-carboxamide] showed an IC50 of 0.031 µM. `O=C(Nc1cccc(-c2cncn2C2CC2)n1)c1cc(-c2ccc(C3CC3)nc2)ccn1` [Example 127, 6-cyclopropyl-N-(6-(1-cyclopropyl-1H-imidazol-5-yl)pyridin-2-yl)-3,4′-bipyridine-2′-carboxamide] showed an IC50 of 0.211 µM. In the case of `O=C(Nc1cccc(-c2nncn2C2CC2)c1)c1cc(-c2ccc(OCC(F)(F)F)nc2)ccn1` [Example 56, N-(3-(4-cyclopropyl-4H-1,2,4-triazol-3-yl)phenyl)-6-(2,2,2-trifluoroethoxy)-3,4′-bipyridine-2′-carboxamide], the IC50 is reported as 0.069 µM. `CCc1ccc(-c2ccnc(C(=O)Nc3cccc(-c4nncn4C4CC4)c3)c2)cn1` [Example 106, N-(3-(4-cyclopropyl-4H-1,2,4-triazol-3-yl)phenyl)-6-ethyl-3,4′-bipyridine-2′-carboxamide] gave an IC50 of 0.008 µM. In the case of `C[C@H](CO)n1cnnc1-c1cccc(NC(=O)c2cc(-c3cccnc3)ccn2)c1` [Example 19, (R)-N-(3-(4-(1-hydroxypropan-2-yl)-4H-1,2,4-triazol-3-yl)phenyl)-3,4′-bipyridine-2′-carboxamide], the IC50 is reported as 0.009 µM. Molecule `Cc1ccc(-c2ccnc(C(=O)Nc3cccc(-c4nncn4C4CC4)c3)c2)cn1` [Example 53, N-(3-(4-cyclopropyl-4H-1,2,4-triazol-3-yl)phenyl)-6-methyl-3,4′-bipyridine-2′-carboxamide] has an IC50 of 0.011 µM. Molecule `O=C(Nc1cccc(-c2nncn2C2CC2)n1)c1cccc(-c2ccc(C3CC3)nc2)n1` [Example 258, 6′-cyclopropyl-N-(6-(4-cyclopropyl-4H-1,2,4-triazol-3-yl)pyridin-2-yl)-2,3′-bipyridine-6-carboxamide] has an IC50 of 0.852 µM.
